{"source": "patent EP0823908B1", "about": "“PYRIDO[2,3-d]PYRIMIDINES FOR INHIBITING PROTEIN TYROSINE KINASE MEDIATED [sequence] PROLIFERATION” (Warner-Lambert Company LLC, priority 1995, dated 1996)", "key": {"[1]": {"target": "T1, C-src kinase (Homo sapiens, UniProt P12931)", "T1 construct": "made in house; host or cells: baculovirus infected insect cells", "T1 sequence (P12931 whole entry)": "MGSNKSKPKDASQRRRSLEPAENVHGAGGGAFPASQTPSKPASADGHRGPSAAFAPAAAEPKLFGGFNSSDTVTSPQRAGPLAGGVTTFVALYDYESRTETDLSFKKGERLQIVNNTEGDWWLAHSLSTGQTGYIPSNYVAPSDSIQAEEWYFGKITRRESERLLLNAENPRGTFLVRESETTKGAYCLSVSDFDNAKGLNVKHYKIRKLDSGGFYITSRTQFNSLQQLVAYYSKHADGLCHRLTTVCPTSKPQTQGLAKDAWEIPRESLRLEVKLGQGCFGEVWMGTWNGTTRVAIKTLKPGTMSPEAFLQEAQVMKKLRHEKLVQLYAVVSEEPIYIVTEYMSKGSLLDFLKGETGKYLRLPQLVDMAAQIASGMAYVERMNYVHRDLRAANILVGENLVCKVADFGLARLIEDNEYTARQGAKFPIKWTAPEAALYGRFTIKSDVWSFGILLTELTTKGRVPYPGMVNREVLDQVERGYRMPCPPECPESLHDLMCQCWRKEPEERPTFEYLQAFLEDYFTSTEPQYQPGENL", "test": "C-src kinase assay (poly GluTyr substrate)", "assay_type": "biochemical", "conditions": "read-out: C-src TK IC50"}, "[2]": {"tested_on": "PDGF receptor", "test": "PDGF receptor autophosphorylation in rat aorta smooth muscle cells", "assay_type": "cell-based", "conditions": "read-out: Inhibition of PDGF-Stimulated Receptor Auto Phosphorylation in Rat Aortic Smooth Muscle Cells (IC50); PDGF-BB 30 ng/mL for 5 minutes after 2 hours with compound", "description": "Rat aorta smooth muscle cells (RASMC) were isolated from the thoracic aorta of rats and explanted according to the method of Ross, J. Cell. Biol., 30:172-186 (1971). Cells were grown in Dulbecco's modified Eagle's medium (DMEM, Gibco) containing 10% fetal calf serum (FBS, Hyclone, Logan, Utah), 1% glutamine (Gibco) and 1% penicillin/streptomycin (Gibco). Cells were identified as smooth muscle cells by their \"hill and valley\" growth pattern and by fluorescent staining with a monoclonal antibody specific for SMC ∝-actin (Sigma). RASMC were used between passages 5 and 20 for all experiments. Test compounds were prepared in dimethylsulfoxide (DMSO) in order to achieve consistency in the vehicle and to ensure compound solubility. Appropriate DMSO controls were simultaneously evaluated with the test compounds.\nRASMC were grown to confluency in 100 mm dishes. Growth medium was removed and replaced with serum-free medium and cells were incubated at 37°C for an additional 24 hours. Test compounds were then added directly to the medium and cells incubated for an additional 2 hours. After 2 hours, PDGF-BB was added at a final concentration of 30 ng/mL for 5 minutes at 37°C to stimulated autophosphorylation of the PDGF receptor. Following growth factor treatment, the medium was removed, and cells were washed with cold phosphate-buffered saline and immediately lysed with 1 mL of lysis buffer (50 mM HEPES[pH 7.5], 150 mM NaCl, 10% glycerol, 1% Triton X-100, 1 mM EDTA, 1 mMEGTA, 50 mM NaF, 1 mM sodium orthovanadate, 30 mM p-nitrophenyl phosphate, 10 mM sodium pyrophosphate, 1 mM phenylmethyl sulfonyl fluoride, 10 µg/mL aprotinin, and 10 µg/mL leupeptin). Lysates were centrifuged at 10,000 × g for 10 minutes. […] Following the incubation, protein-A-sepharose beads were added for 2 hours with continuous mixing, and immune complexes bound to the beads washed four times with 1 mL lysis wash buffer. Immune complexes were solubilized in 30 µL of Laemmli sample buffer and electrophoresed in 4-20% SDS polyacrylamide gels. Following electrophoresis, separated proteins were transferred to nitrocellulose and immunoblotted with anti-phosphotyrosine antiserum. […] IC50 values were generated from the densitometric data."}}, "data": [{"smiles": "Cn1c(=O)c(-c2c(Cl)cccc2Cl)cc2cnc(Nc3ccccc3)nc21", "note": "[Example 54, 6-(2,6-Dichlorophenyl)-8-methyl-2-phenylamino-8H-pyrido[2,3-d]pyrimidin-7-one]", "values": [{"measurement": "IC50", "setting": "[1]", "result": 0.024, "unit": "µM"}, {"measurement": "IC50", "setting": "[2]", "result": 0.016, "unit": "µM"}]}]}
